Reference: patent US20150225369A1, “DDR2 INHIBITORS FOR THE TREATMENT OF OSTEOARTHRITIS” (Merck Patent GmbH, priority 2012, published 2015)

Biological target: T1, HEK293 transfected with human DDR2 (Homo sapiens, UniProt Q16832)
T1 construct: expressed in transfected cells; host or cells: HEK293 (PLT460F_(DDR2)-P7-1)
T1 sequence (Q16832 22-855): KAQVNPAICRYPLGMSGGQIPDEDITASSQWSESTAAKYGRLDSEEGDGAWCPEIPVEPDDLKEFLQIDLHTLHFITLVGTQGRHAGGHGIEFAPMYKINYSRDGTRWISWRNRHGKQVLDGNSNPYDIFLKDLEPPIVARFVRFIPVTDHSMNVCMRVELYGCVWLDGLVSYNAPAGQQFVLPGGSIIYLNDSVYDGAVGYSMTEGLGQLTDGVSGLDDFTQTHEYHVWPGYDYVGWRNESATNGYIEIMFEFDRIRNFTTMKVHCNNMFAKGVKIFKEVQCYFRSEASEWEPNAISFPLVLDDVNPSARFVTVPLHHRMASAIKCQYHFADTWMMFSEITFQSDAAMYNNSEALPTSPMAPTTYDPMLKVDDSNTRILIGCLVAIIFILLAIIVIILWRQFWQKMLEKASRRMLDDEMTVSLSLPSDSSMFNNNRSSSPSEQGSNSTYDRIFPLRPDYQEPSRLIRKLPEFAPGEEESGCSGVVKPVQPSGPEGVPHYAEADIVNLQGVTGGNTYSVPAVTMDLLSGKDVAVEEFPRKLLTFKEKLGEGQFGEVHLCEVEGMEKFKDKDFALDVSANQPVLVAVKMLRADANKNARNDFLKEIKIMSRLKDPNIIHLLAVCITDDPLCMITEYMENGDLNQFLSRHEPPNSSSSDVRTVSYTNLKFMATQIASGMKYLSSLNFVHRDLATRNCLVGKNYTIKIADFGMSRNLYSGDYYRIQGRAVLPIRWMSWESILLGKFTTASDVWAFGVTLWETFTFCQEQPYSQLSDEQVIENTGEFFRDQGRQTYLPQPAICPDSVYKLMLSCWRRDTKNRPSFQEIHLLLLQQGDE
Assay: Phospho-DDR2 cellular assay (collagen II induced DDR2 phosphorylation, ELISA)
Type: cell-based
Settings: cellular phospho-DDR2; read-out: IC50 [p-DDR2]
Method: Assays were performed in a 384 well plate format, using cell line HEK293 transfected with human DDR2 (PLT460F_(DDR2)-P7-1)
Cells were seeded at a density of 10'000 cells/well in 384well poly-D-lysine coated Black/clear plate (Cellcoat Greiner) and incubated in DMEM medium in the presence of 10% fetal bovine serum at 37° C., 5% CO2 for 48 h. Medium was replaced by serum-free medium and cells were incubated at 37° C., 5% CO2 for 8 h. Compound to be tested in 5% DMSO or 5% DMSO and 50 μg/ml of chicken collagen II were added and cells were incubated at 37° C., 5% CO2 for 16 h
Cells were rinsed with ice-cold PBS, lysed with lysis buffer (M-PER Thermo #78501) for 30 min at room temperature and centrifuged for 1 min at 1000 RPM. In parallel, White High binding 384 well plates (Corning) were coated with mouse anti-human DDR2 capture antibody (R&D Systems kit DuoSet IC Human phospho-DDR2 ELISA), overnight at RT.
An aliquot of cell lysate was transferred to the coated plates and incubated for 2 h at RT. Plates were washed and mouse anti-phospho-tyrosine detection antibody (R&D Systems kit DuoSet IC Human phospho-DDR2 ELISA) conjugated to horse radish peroxidase (HRP) was added for 2 h at RT. Plates were washed and chemiluminescent substrate for HRP (Thermo) was added for 15 min at RT. Luminescence was measured on a luminometer.

SMILES	IC50 [nM]
CNC(=O)c1cc(Oc2ccc(CNC(=O)Nc3cc(C(F)(F)F)ccc3CC(N)=O)cc2)ccn1 [compound 209, 4-{4-[3-(2-Carbamoylmethyl-5-trifluoromethyl-phenyl)-ureidomethyl]-phenoxy}-pyridine-2-carboxylic acid methylamide]	985
CNC(=O)c1cc(Oc2ccc(CNC(=O)Nc3ccc(C)c(Cl)c3)cc2F)ccn1 [compound 234, 4-{4-[3-(3-Chloro-4-methyl-phenyl)-ureidomethyl]-2-fluoro-phenoxy}-pyridine-2-carboxylic acid methylamide]	72
CNC(=O)c1cc(Oc2ccc(CNC(=O)Nc3cc(C(F)(F)F)ccc3-n3cncn3)cc2F)ccn1 [compound 235, 4-{2-Fluoro-4-[3-(2-[1,2,4]triazol-1-yl-5-trifluoromethyl-phenyl)-ureidomethyl]-phenoxy}-pyridine-2-carboxylic acid methylamide]	27
CNC(=O)c1cc(Oc2ccc(CNC(=O)Nc3cccc(S(C)(=O)=O)c3)cc2C)ccn1 [compound 154, 4-{4-[3-(3-Methanesulfonyl-phenyl)-ureidomethyl]-2-methyl-phenoxy}-pyridine-2-carboxylic acid methylamide]	1250
CNC(=O)c1cc(Oc2ccc(CNC(=O)Nc3cc(Cl)c(Cl)cc3Cl)cc2)ccn1 [compound 23]	100
CNC(=O)c1cc(Oc2ccc(CNC(=O)Nc3cc(C(F)(F)F)ccc3CN3CCNCC3)cc2)ccn1 [compound 192, 4-{4-[3-(2-Piperazin-1-ylmethyl-5-trifluoromethyl-phenyl)-ureidomethyl]-phenoxy}-pyridine-2-carboxylic acid methylamide]	1150
CNC(=O)c1cc(Oc2ccc(CNC(=O)Nc3ccc(N4CCOCC4=O)c(Cl)c3)cc2)ccn1 [compound 225, 4-(4-{3-[3-Chloro-4-(3-oxo-morpholin-4-yl)-phenyl]-ureidomethyl}-phenoxy)-pyridine-2-carboxylic acid methylamide]	8800
CNC(=O)c1cc(Oc2ccc(CNC(=O)Nc3cc(C(F)(F)F)ccc3-n3cncn3)cc2)ccn1 [compound 201, 4-{4-[3-(2-[1,2,4]Triazol-1-yl-5-trifluoromethyl-phenyl)-ureidomethyl]-phenoxy}-pyridine-2-carboxylic acid methylamide]	41
CNC(=O)c1cc(Oc2ccc(CNC(=O)N3C(=O)Cc4ccc(C(F)(F)F)cc43)cc2)ccn1 [compound 205, 2-Oxo-6-trifluoromethyl-2,3-dihydro-indole-1-carboxylic acid 4-(2-methylcarbamoyl-pyridin-4-yloxy)-benzylamide]	1100
CNC(=O)c1cc(Oc2ccc(CNC(=O)Nc3cc(C(F)(F)F)ccc3-n3cncn3)cc2C)ccn1 [compound 202, 4-{2-Methyl-4-[3-(2-[1,2,4]triazol-1-yl-5-trifluoromethyl-phenyl)-ureidomethyl]-phenoxy}-pyridine-2-carboxylic acid methylamide]	14
CNC(=O)c1cc(Oc2ccc(CNC(=O)Nc3ccc(NC(C)=O)c(C(F)(F)F)c3)cc2)ccn1 [compound 241, 4-{4-[3-(4-Acetylamino-3-trifluoromethyl-phenyl)-ureidomethyl]-phenoxy}-pyridine-2-carboxylic acid methylamide]	710
CNC(=O)c1cc(Oc2ccc(CNC(=O)Nc3ccc(C)cc3CO)cc2C)ccn1 [compound 196, 4-{4-[3-(2-Hydroxymethyl-4-methyl-phenyl)-ureidomethyl]-2-methyl-phenoxy}-pyridine-2-carboxylic acid methylamide]	17600
CNC(=O)c1cc(Oc2ccc(CNC(=O)Nc3cccc(NS(C)(=O)=O)c3)cc2C)ccn1 [compound 167, 4-{4-[3-(3-Methanesulfonylamino-phenyl)-ureidomethyl]-2-methyl-phenoxy}-pyridine-2-carboxylic acid methylamide]	1500
